Data as given in patent US20200291018A1, “TAM KINASE INHIBITORS” (SYROS PHARMACEUTICALS, INC., priority 2017, published 2020).

Columns and labels:
Assay type in all cases: biochemical
FLT3 = molecular target: T1, FLT3 (Homo sapiens, UniProt P36888); test: TR-FRET kinase activity assay, FLT3; conditions: ATP at Km, 60 minutes
T1 sequence (P36888 27-993): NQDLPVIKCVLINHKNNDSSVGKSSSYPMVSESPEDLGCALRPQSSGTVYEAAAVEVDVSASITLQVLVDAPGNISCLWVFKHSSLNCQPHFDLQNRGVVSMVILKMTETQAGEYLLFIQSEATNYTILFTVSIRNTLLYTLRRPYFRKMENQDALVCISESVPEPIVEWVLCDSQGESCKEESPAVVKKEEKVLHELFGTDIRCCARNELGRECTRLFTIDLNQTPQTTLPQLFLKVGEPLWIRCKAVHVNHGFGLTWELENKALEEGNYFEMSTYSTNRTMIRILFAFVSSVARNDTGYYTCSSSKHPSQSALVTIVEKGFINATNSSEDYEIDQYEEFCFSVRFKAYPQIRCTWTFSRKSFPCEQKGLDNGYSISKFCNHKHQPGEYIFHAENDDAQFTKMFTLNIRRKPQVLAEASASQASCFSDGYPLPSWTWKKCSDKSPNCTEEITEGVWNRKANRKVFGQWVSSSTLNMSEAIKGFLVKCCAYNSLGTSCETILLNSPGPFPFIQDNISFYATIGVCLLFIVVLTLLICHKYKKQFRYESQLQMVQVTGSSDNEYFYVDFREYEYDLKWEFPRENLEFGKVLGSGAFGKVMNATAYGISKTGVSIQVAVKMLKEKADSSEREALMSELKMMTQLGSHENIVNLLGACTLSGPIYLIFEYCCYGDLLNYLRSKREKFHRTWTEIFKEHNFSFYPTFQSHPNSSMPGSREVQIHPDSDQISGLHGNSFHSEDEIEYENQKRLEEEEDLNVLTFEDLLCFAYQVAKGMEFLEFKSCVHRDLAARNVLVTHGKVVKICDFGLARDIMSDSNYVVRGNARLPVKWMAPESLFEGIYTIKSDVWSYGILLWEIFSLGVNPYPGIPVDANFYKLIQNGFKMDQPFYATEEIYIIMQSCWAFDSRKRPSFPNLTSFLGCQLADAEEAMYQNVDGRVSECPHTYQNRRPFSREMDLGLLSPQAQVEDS
Description: (§1) IC50 values for compound inhibition of AXL, FLT3, MERTK and TYRO3 activity were determined using a TR-FRET activity assay. A peptide substrate with a fluorescent label is phosphorylated on a tyrosine by each enzyme, where the now phosphorylated product is bound by a Europium-labeled antibody specific to that phosphorylation site. The proximity between the antibody and the substrate gives a signal known as TR-FRET. As the enzyme is inhibited by compound, less phosphorylated peptide product is made, causing a decrease in overall signal.
(§2) Activity assays were performed in a 384-well, small volume, black microplates in an active enzyme volume of 10 uL and final developed volume of 20 uL. Final assay conditions are 50 mM HEPES pH 7.5, 10 mM MgCl2, 1 mM EGTA, 0.01% Brij 35 and 1 mM DTT, all at RT. Enzyme, substrate-labeled peptide and compound are mixed, and then the reaction is initiated with the addition of ATP at Km concentration for each enzyme. The reaction is allowed to run 60 minutes and then quenched with a 12.5 mM EDTA (ethylenediamine tetraacetic acid) solution. The plate is then developed with the addition of Europium-labeled antibody for a final volume of 20 uL and is then incubated for 30 minutes in darkness. Plates are read in a PHERASTAR® plate reader. Data are analyzed in GraphPad PRISM.

AXL = molecular target: T2, AXL (Homo sapiens, UniProt P30530); test: TR-FRET kinase activity assay, AXL; conditions: ATP at Km, 60 minutes
T2 sequence (P30530 26-894): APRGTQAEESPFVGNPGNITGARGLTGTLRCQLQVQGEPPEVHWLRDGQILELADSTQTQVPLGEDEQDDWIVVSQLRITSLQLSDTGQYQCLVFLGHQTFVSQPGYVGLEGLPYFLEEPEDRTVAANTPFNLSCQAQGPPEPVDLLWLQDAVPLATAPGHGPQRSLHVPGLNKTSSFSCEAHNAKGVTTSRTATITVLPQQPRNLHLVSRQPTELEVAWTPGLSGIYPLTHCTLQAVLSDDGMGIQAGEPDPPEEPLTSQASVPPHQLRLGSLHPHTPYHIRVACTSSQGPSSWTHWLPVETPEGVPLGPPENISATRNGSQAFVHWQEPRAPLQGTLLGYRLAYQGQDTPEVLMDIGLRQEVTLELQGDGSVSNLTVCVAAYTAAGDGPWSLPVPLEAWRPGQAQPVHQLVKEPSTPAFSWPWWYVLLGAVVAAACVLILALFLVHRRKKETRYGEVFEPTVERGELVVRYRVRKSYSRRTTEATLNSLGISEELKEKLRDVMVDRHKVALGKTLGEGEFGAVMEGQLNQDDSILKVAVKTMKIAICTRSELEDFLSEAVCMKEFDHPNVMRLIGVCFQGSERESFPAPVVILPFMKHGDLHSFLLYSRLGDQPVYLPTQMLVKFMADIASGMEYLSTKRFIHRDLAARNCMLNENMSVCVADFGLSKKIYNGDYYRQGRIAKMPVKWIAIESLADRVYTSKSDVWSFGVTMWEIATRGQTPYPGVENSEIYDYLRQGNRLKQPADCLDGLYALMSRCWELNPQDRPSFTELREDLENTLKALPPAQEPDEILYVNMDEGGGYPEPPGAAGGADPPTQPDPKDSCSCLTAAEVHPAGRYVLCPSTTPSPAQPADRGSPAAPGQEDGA
Description: as §1, §2

MERTK = molecular target: T3, MERTK (Homo sapiens, UniProt Q12866); test: TR-FRET kinase activity assay, MERTK; conditions: for IC50: TR-FRET activity assay, ATP at Km, 60 minutes, read-out: Mer IC50; for Mer/Flt3 ratio (FLT3 IC50/Mer IC50): ratio calculated as FLT3 IC50/Mer IC50
T3 sequence (Q12866 21-999): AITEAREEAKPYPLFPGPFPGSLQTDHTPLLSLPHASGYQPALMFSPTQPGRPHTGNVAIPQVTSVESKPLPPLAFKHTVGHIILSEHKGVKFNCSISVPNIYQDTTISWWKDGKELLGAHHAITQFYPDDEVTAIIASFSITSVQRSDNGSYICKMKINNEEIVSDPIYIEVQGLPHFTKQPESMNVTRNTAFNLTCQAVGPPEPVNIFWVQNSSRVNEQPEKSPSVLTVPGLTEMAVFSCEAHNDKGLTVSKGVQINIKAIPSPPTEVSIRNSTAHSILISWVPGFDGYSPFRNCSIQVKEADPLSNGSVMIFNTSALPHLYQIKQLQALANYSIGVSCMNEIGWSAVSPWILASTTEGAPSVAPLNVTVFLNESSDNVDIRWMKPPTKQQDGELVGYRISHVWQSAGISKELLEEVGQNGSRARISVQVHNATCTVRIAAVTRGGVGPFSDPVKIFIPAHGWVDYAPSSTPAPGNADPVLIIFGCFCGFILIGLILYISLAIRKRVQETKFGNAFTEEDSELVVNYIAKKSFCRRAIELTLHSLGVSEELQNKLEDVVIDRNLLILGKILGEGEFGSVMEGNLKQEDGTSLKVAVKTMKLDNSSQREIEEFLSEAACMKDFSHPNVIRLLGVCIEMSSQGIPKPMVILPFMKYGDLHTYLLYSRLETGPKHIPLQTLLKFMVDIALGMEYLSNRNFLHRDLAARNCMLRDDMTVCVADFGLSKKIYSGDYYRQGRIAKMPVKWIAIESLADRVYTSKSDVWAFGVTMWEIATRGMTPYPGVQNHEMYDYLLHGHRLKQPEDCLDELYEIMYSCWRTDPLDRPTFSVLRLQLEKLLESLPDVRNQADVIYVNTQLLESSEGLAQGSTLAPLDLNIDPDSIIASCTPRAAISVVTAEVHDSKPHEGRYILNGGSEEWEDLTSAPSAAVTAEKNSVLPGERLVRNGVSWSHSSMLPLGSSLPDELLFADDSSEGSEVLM
Description: as §1, §2

Row | Structure (SMILES) | IC50 (FLT3) [µM] | IC50 (AXL) [µM] | IC50 (MERTK) [µM] | Mer/Flt3 ratio (FLT3 IC50/Mer IC50) (MERTK)
1 | CCCCNc1ncc2c(=O)n(Cc3ccc(F)cc3)cc([C@H]3CC[C@H](O)CC3)c2n1 [Compound 105] | 0.1 to 1 | 0.1 to 1 | ≤ 0.1 | + (a ratio of >2.0 and <10)
2 | CCCCNc1ncc2c(=O)n(C3CCOCC3)cc([C@H]3CC[C@H](O)CC3)c2n1 [Compound 106, 2-(butylamino)-8-(4-hydroxycyclohexyl)-6-tetrahydropyran-4-yl-pyrido[4,3-d]pyrimidin-5-one] | 0.1 to 1 | 0.1 to 1 | ≤ 0.1 | + (a ratio of >2.0 and <10)
3 | COCC(COC)Nc1ncc2c(=O)n(C3CCNCC3)cc([C@H]3CC[C@H](O)CC3)c2n1 [Compound 110] | 1 to 10 | 1 to 10 | 1 to 10 | NS (a ratio of ≤2.0)
4 | COCC(C)Nc1ncc2c(=O)n(C3CCNCC3)cc(C3CCC(O)CC3)c2n1 (centres unmarked) [Compound 111, 8-((1r,4r)-4-hydroxycyclohexyl)-2-((1-methoxypropan-2-yl)amino)-6-(piperidin-4-yl)pyrido[4,3-d]pyrimidin-5(6H)-one] | 1 to 10 | 0.1 to 1 | ≤ 0.1 | +++ (a ratio of >100)
5 | CCCCC[C@H](C)Nc1ncc2c(OC3CCOCC3)ncc([C@H]3CC[C@H](O)CC3)c2n1 [Compound 113] | 1 to 10 | 0.1 to 1 | ≤ 0.1 | +++ (a ratio of >100)
6 | CCCCNc1ncc2c(NC3CCN(C)CC3)ncc([C@H]3CC[C@H](O)CC3)c2n1 [Compound 114] | ≤ 0.1 | 0.1 to 1 | ≤ 0.1 | +++ (a ratio of >100)
7 | CCCCNc1ncc2c(Oc3ccc(F)cc3)ncc([C@H]3CC[C@H](O)CC3)c2n1 [Compound 115] | ≤ 0.1 | 1 to 10 | ≤ 0.1 | + (a ratio of >2.0 and <10)
8 | COCC(C)Nc1ncc2c(=O)n(C3CCN(C)CC3)cc([C@H]3CC[C@H](O)CC3)c2n1 (some centres unmarked) [Compound 118] | 1 to 10 | 0.1 to 1 | 0.1 to 1 | ++ (a ratio of between 10 and 100)
9 | CCCCC[C@H](C)Nc1ncc2c(OC3CCNCC3)ncc([C@H]3CC[C@H](O)CC3)c2n1 [Compound 121] | 1 to 10 | 0.1 to 1 | ≤ 0.1 | +++ (a ratio of >100)
10 | CCCCNc1ncc2c(N(C)C)ncc([C@H]3CC[C@H](O)CC3)c2n1 [Compound 123] | ≤ 0.1 | 0.1 to 1 | 1 to 10 | NS (a ratio of ≤2.0)
11 | CC[C@H](C)Nc1ncc2c(OCC34CCC(N)(CC3)CC4)ncc([C@H]3CC[C@H](O)CC3)c2n1 [Compound 252] | 1 to 10 | 0.1 to 1 | ≤ 0.1 | ++ (a ratio of between 10 and 100)
